# Measured values: the supplement of paper PMC10307832
# What was measured:
# Assay in all cases: relative viability (nuclei count vs DMSO), 5 days (fraction); higher = more cells survive
# Cediranib + AZD7762 = compound: COc1cc2c(Oc3ccc4[nH]c(C)cc4c3F)ncnc2cc1OCCCN1CCCC1 [Cediranib] + NC(=O)Nc1cc(-c2cccc(F)c2)sc1C(=O)N[C@H]1CCCNC1 [AZD7762] (partner 0.2 µM)
# Outline: (§1)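 A single step with final 0.05% Triton X-100, 1% formaldehyde and 1 ug/ml Hoechst fixed the cells and stained nuclei 5 days after treatment. Lung cancer cell lines in 1536-well plates had been treated by pin tool the day after seeding with one drug alone or a fixed anchor-drug dose plus five library-drug doses (not always all listed) in √10 steps, and nuclei were counted on 4× images. Relative viability is the ratio of nuclei in treated wells to nuclei in vehicle wells, taken as the median of duplicate plates.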
# Decitabine + Linsitinib = compound: Nc1ncn([C@H]2C[C@H](O)[C@@H](CO)O2)c(=O)n1 [Decitabine] + C[C@]1(O)C[C@@H](c2nc(-c3ccc4ccc(-c5ccccc5)nc4c3)c3c(N)nccn32)C1 [Linsitinib] (partner 1 µM)
# Outline: as §1
# [1] = compound: O=C(C[C@H]1NCCC[C@@H]1O)Cn1cnc2cc(Br)c(Cl)cc2c1=O (racemic) [Halofuginone] + CCNC(=O)c1noc(-c2cc(C(C)C)c(O)cc2O)c1-c1ccc(CN2CCOCC2)cc1 [Luminespib] (partner 0.01 µM)
# Outline: as §1
# Cediranib + Bortezomib = compound: COc1cc2c(Oc3ccc4[nH]c(C)cc4c3F)ncnc2cc1OCCCN1CCCC1 [Cediranib] + CC(C)C[C@H](NC(=O)[C@H](Cc1ccccc1)NC(=O)c1cnccn1)B(O)O [Bortezomib] (partner 0.002 µM)
# Outline: as §1
Cell Line,relative viability (Cediranib + AZD7762; first compound 0.04 µM),relative viability (Cediranib + AZD7762; first compound 0.1265 µM),relative viability (Cediranib + AZD7762; first compound 0.4 µM),relative viability (Cediranib + AZD7762; first compound 1.265 µM),relative viability (Cediranib + AZD7762; first compound 4 µM),relative viability (Decitabine + Linsitinib; first compound 0.1265 µM),relative viability (Decitabine + Linsitinib; first compound 0.4 µM),relative viability (Decitabine + Linsitinib; first compound 1.265 µM),relative viability (Decitabine + Linsitinib; first compound 4 µM),relative viability ([1]; first compound 0.001 µM),relative viability ([1]; first compound 0.003162 µM),relative viability ([1]; first compound 0.01 µM),relative viability ([1]; first compound 0.03162 µM),relative viability ([1]; first compound 0.1 µM),relative viability (Cediranib + Bortezomib; first compound 0.04 µM),relative viability (Cediranib + Bortezomib; first compound 0.4 µM),relative viability (Cediranib + Bortezomib; first compound 1.265 µM),relative viability (Cediranib + Bortezomib; first compound 4 µM),relative viability (Decitabine + Linsitinib; first compound 0.04 µM),relative viability (Cediranib + Bortezomib; first compound 0.1265 µM)
HCC-827,0.226,0.455,0.193,0.163,0.198,0.501,0.396,0.324,0.93,0.453,0.473,0.478,0.705,0.504,1.03,0.967,1.11,1.08,,
HOP-62,0.612,0.397,0.263,0.446,0.712,0.307,0.159,0.138,1.05,0.817,0.96,0.902,0.921,0.818,0.322,0.672,0.68,0.842,0.617,
LC-2-ad,0.92,1.02,0.759,0.88,0.85,0.746,0.51,0.497,0.378,1.08,1,0.848,1.01,0.326,1.09,0.973,1.03,0.959,0.732,1.04
LCLC-97TM1,0.418,,0.329,0.244,0.287,0.199,0.166,0.116,0.213,0.741,0.801,0.905,0.791,0.854,0.351,0.643,0.769,0.578,0.183,
LCLC-103H,0.829,1.01,0.724,0.826,0.858,1.13,1.12,0.882,0.888,0.948,1.1,0.968,0.989,0.805,0.989,0.921,1.14,1.11,1.06,1.12
LOU-NH91,0.803,0.86,0.693,0.697,0.803,0.839,0.779,0.693,0.735,0.332,0.361,0.354,0.346,0.339,0.409,0.517,0.513,0.488,0.575,0.475
LU99A,0.457,,0.338,0.287,0.41,0.584,0.603,0.442,0.374,0.244,0.281,0.238,0.239,0.174,1.27,1.12,0.942,1.17,0.45,
LXF-289,1.12,,1.02,0.971,1.11,0.674,0.566,0.372,0.395,0.664,0.701,0.699,0.763,0.317,1.04,0.969,0.97,0.958,0.893,0.87
NCI-H23,0.222,0.383,0.246,0.331,0.286,0.381,0.252,0.215,0.229,0.213,0.184,0.203,0.203,0.231,1.07,0.938,0.907,1.32,0.571,
NCI-H322M,0.621,0.671,0.495,0.424,0.565,0.844,0.737,0.497,0.472,0.944,0.855,0.915,0.719,0.318,1.29,1.32,1.24,1.28,0.773,1.56
NCI-H441,1.26,1.25,1.07,1.16,1.18,0.407,0.272,0.19,0.165,0.352,0.292,0.487,0.306,0.213,0.304,,0.498,0.934,0.282,0.688
NCI-H460,0.727,0.679,0.584,0.574,0.616,0.855,0.669,0.168,0.114,0.0339,0.0272,0.0348,0.0271,0.0193,1.06,1.01,0.987,1.39,0.651,1.23
NCI-H596,1.21,1.31,0.853,0.969,1.2,0.983,0.885,0.826,0.839,1.02,1.23,1.06,0.941,0.324,1.05,0.831,1,1.09,1.07,1.01
NCI-H647,0.498,0.462,0.389,0.404,0.475,0.874,0.759,0.234,0.237,0.141,0.153,0.147,0.137,0.129,1.1,0.845,0.728,1.16,0.989,1.02
NCI-H650,0.879,0.654,0.953,0.944,1.13,0.538,0.298,0.258,0.32,0.793,0.738,0.822,0.667,0.59,0.873,0.879,0.764,0.718,0.722,0.625
NCI-H727,0.601,0.379,0.636,0.626,0.538,0.232,0.302,0.282,0.234,0.258,0.327,0.435,0.389,0.355,0.807,0.789,0.64,0.747,0.303,0.55

Cell Line,relative viability (Cediranib + AZD7762; first compound 0.04 µM),relative viability (Cediranib + AZD7762; first compound 0.1265 µM),relative viability (Cediranib + AZD7762; first compound 0.4 µM),relative viability (Cediranib + AZD7762; first compound 1.265 µM),relative viability (Cediranib + AZD7762; first compound 4 µM),relative viability (Decitabine + Linsitinib; first compound 0.1265 µM),relative viability (Decitabine + Linsitinib; first compound 0.4 µM),relative viability (Decitabine + Linsitinib; first compound 1.265 µM),relative viability (Decitabine + Linsitinib; first compound 4 µM),relative viability ([1]; first compound 0.001 µM),relative viability ([1]; first compound 0.003162 µM),relative viability ([1]; first compound 0.01 µM),relative viability ([1]; first compound 0.03162 µM),relative viability ([1]; first compound 0.1 µM),relative viability (Cediranib + Bortezomib; first compound 0.04 µM),relative viability (Cediranib + Bortezomib; first compound 0.4 µM),relative viability (Cediranib + Bortezomib; first compound 1.265 µM),relative viability (Cediranib + Bortezomib; first compound 4 µM),relative viability (Decitabine + Linsitinib; first compound 0.04 µM),relative viability (Cediranib + Bortezomib; first compound 0.1265 µM)
NCI-H838,0.978,0.934,0.934,0.896,0.975,0.561,0.333,0.318,0.264,0.366,0.257,0.335,0.349,0.158,0.812,0.926,0.713,1.05,0.798,0.557
NCI-H1355,0.806,1.08,0.717,0.668,0.714,0.622,0.52,0.348,0.827,0.716,0.635,0.672,0.672,0.579,1.18,1.23,1.24,1.21,0.663,1.17
NCI-H1437,1.12,1.1,1.15,1.07,0.998,0.771,0.385,0.259,0.233,1.12,1.1,1.1,1.04,0.879,0.55,0.554,0.565,0.673,0.894,0.407
NCI-H1651,0.437,0.527,0.471,0.314,0.524,0.888,0.888,0.839,0.733,0.7,0.797,0.802,0.65,0.427,0.972,0.915,0.914,0.894,0.865,0.87
NCI-H1666,0.868,0.757,0.907,0.767,0.894,0.706,0.672,0.629,0.689,1.01,0.968,0.996,0.958,0.783,0.9,0.852,0.815,0.836,0.816,0.607
NCI-H1734,0.679,0.952,0.446,0.42,0.629,0.691,0.698,0.459,0.348,0.198,0.199,0.224,0.233,0.187,0.831,0.806,0.837,1.24,0.739,0.814
NCI-H1755,0.423,0.617,0.375,0.43,0.425,0.948,0.915,0.688,0.429,0.469,0.41,0.392,0.565,0.445,0.971,0.878,0.991,0.958,0.936,0.925
NCI-H1792,,0.922,0.554,0.658,0.838,0.568,0.531,0.378,0.333,0.498,0.402,0.414,0.452,0.296,1.07,0.953,0.955,0.762,0.643,1.14
NCI-H1915,0.657,0.8,0.715,0.709,0.719,0.396,0.353,0.286,0.276,0.787,0.826,0.794,0.719,0.55,0.989,0.958,0.949,0.984,0.586,0.914
NCI-H1975,0.687,0.73,0.782,0.799,0.602,0.525,0.346,0.326,0.369,0.24,0.215,0.272,0.241,0.183,0.423,0.326,0.432,0.345,0.706,0.479
NCI-H1993,,0.923,0.819,0.588,0.755,0.745,0.763,0.718,0.659,1,1.05,0.699,0.863,0.682,1.07,1.08,1.07,1.05,0.767,1.32
NCI-H2085,0.966,0.987,0.921,1.11,0.997,0.615,0.508,0.392,0.372,0.41,0.5,0.48,0.489,0.377,1.1,0.956,0.97,0.954,0.744,1.05
NCI-H2087,1.08,1.34,1.26,1.23,1.43,0.678,0.591,0.41,0.384,0.179,0.152,0.178,0.174,0.134,0.849,0.775,0.722,0.697,0.659,0.739
NCI-H2126,0.985,1.08,1.01,0.87,1.05,0.677,0.591,0.533,0.489,0.901,0.92,0.928,0.914,0.675,1.14,1.09,0.963,1.11,0.698,1.2
NCI-H2347,0.808,0.808,0.755,0.746,0.691,0.935,0.725,0.639,0.625,0.513,0.321,0.483,0.511,0.598,1.09,0.93,1.02,0.96,0.936,0.819
NCI-H2405,0.749,1.31,0.594,0.864,0.803,0.891,0.74,0.548,0.465,0.797,0.691,0.72,0.688,0.663,1.05,0.982,0.894,0.983,0.838,0.475
